Among the test systems are KM-20L2; HOP-18; SNB-78; DMS-273; M19-MEL; DLD-1; RXF 631; DMS-114; XF498.
What all share (assay): inhibition of tumour cell growth, NCI panel, 48 h

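Values below derive from 48-hour exposures of cells grown in 96-well plates, with endpoints linearly interpolated between the two concentrations bracketing the appropriate inhibition level. The concentration for 50% growth inhibition is given as GI50.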 Activity calls are given as the source filed them. Rule as the data show it: active = GI50 up to about 1.1 µM and inactive = higher.

For the compound `O=C(/C=C1\Nc2ccccc2C(=O)N1c1ccccc1Cl)c1ccccc1`, the GI50 with KM-20L2, in the assay on HOP-18, with SNB-78, in the assay on DMS-273, in the assay on M19-MEL and with DLD-1 was > 100 µM (inactive) each time. For the same compound, the GI50 with RXF 631 is > 100 µM (inactive); in the assay on DMS-114, 86.3 µM (inactive).
With `CCNc1nc2c(=O)n(C)c(=O)n(C)c2s1`, the GI50 in the assay with KM-20L2, in the assay with HOP-18, in the assay on SNB-78, in the assay on XF498, in the assay on M19-MEL and in the assay on DLD-1 was > 100 µM (inactive) throughout.
Take `O=C(/C=C/c1ccc(OCCCOc2ccc(/C=C/C(=O)c3ccc(Cl)cc3)cc2)cc1)c1ccc(Cl)cc1`: the GI50 in the assay with KM-20L2 is > 100 µM (inactive); in the assay on HOP-18, 5.42 µM (inactive); with SNB-78, > 100 µM (inactive); in the assay with XF498, > 100 µM (inactive); in the assay on DMS-273 it was > 100 µM (inactive); in the assay on M19-MEL, > 100 µM (inactive). Further, the GI50 with DLD-1 and in the assay with DMS-114 was > 100 µM (inactive) in each case.
With `CC1CCC2(OC1)OC1CC3C4CCC5CC(O)CCC5(C)C4CC(=O)OC3(C)C1C2C` (stereo not drawn), the GI50 in the assay with KM-20L2, in the assay with HOP-18, with SNB-78, in the assay with DMS-273, with M19-MEL and with DLD-1 was > 100 µM (inactive) throughout. Moreover, the GI50 with DMS-114 is > 100 µM (inactive).
Consider `C=C1C=CC2(Br)OC3CC(C)(Cl)C(Br)CC13C2(C)C` (stereo not drawn), for which the GI50 with KM-20L2 was 21.9 µM (inactive); with SNB-78 it was 22.4 µM (inactive); with XF498, 13.3 µM (inactive); in the assay on DMS-273 it was 35.8 µM (inactive); in the assay on M19-MEL, 21.5 µM (inactive); in the assay on DLD-1, 31.6 µM (inactive). In addition, the GI50 in the assay on RXF 631 is 23 µM (inactive); with DMS-114 it was 17.2 µM (inactive).
Turning to `CCOC1c2cc(OC)c(OC)cc2-c2ccc3ccccc3c2N1C` (stereo not drawn), the GI50 with KM-20L2 was 15.3 µM (inactive); in the assay on HOP-18, 42.4 µM (inactive); with SNB-78, 33.6 µM (inactive); in the assay on XF498, 14.8 µM (inactive); in the assay with DMS-273, 6.46 µM (inactive); with M19-MEL, 11.2 µM (inactive). For the same compound, the GI50 in the assay with DLD-1 is 25.5 µM (inactive); with RXF 631, 22.9 µM (inactive); with DMS-114, 9.35 µM (inactive).
Take `COc1cc(C(O)C(=O)c2nc3ccc([N+](=O)[O-])cc3nc2O)ccc1O` (stereo not drawn): the GI50 in the assay with KM-20L2 is 69.7 µM (inactive); in the assay with SNB-78, > 100 µM (inactive); in the assay on XF498, > 100 µM (inactive); with DMS-273, 83.9 µM (inactive); with M19-MEL, > 100 µM (inactive); in the assay with DLD-1, > 100 µM (inactive). Further, the GI50 in the assay with DMS-114 was 66.8 µM (inactive).
In the case of `Cc1ccc(C)c(NC(=O)/C(=N\NC(N)=S)C(C#N)c2ccccc2)c1` (stereo not drawn), the GI50 in the assay with KM-20L2, with HOP-18, with XF498, in the assay with DMS-273, with M19-MEL and with DLD-1 was > 100 µM (inactive) each time. In the assay with DMS-114, the GI50 was > 100 µM (inactive).
Take `O=C(c1ccccc1)C(c1ccccc1)C1(O)C(=O)Nc2ccc([N+](=O)[O-])cc21` (stereo not drawn): the GI50 with KM-20L2 is > 100 µM (inactive); in the assay on SNB-78, > 100 µM (inactive); in the assay with XF498, > 100 µM (inactive); in the assay with M19-MEL it was 26.9 µM (inactive); with DLD-1, > 100 µM (inactive); in the assay with RXF 631, > 100 µM (inactive). The GI50 in the assay on DMS-114 is 19.8 µM (inactive).
Turning to `COc1cccc(NC(=O)C(C)(C)C)c1C=O`, the GI50 with KM-20L2 is 43.8 µM (inactive); with HOP-18 it was 91 µM (inactive); in the assay on SNB-78 it was 51.2 µM (inactive); with XF498, 7.38 µM (inactive); in the assay with M19-MEL, 59.3 µM (inactive); with DLD-1, 51.9 µM (inactive). The GI50 with RXF 631 was 81.3 µM (inactive); with DMS-114, 34.6 µM (inactive).
For the compound `COC(=O)C12C3C4C1C1C2C3C41C(=O)N(C(C)C)C(C)C` (stereo not drawn), the GI50 with KM-20L2, in the assay on SNB-78, with DMS-273, with M19-MEL, with DLD-1 and in the assay on DMS-114 was > 100 µM (inactive) each time.
In the case of `[N-]=[N+]=N/C1=C/CCCCC(=O)C1`, the GI50 with KM-20L2, in the assay on SNB-78, with XF498, in the assay on DMS-273, in the assay on M19-MEL and in the assay on DLD-1 was > 100 µM (inactive) in each case. For the same compound, the GI50 with DMS-114 is > 100 µM (inactive).
As for `[O-][n+]1c2cc3c(cc2[n+]([O-])c2c(O)cccc21)CN(CCN1CCOCC1)C3`, the GI50 was 35.4 µM (inactive) in the assay with KM-20L2; > 100 µM (inactive) in the assay on HOP-18; 32.4 µM (inactive) with SNB-78; 12.5 µM (inactive) in the assay with XF498; 53.6 µM (inactive) with DMS-273; 14.5 µM (inactive) with M19-MEL. In addition, the GI50 was > 100 µM (inactive) in the assay with RXF 631 and 8.41 µM (inactive) with DMS-114.
`O=[N+]([O-])c1cc(C(F)(F)F)cc([N+](=O)[O-])c1CCl`: the GI50 is 3.98 µM (inactive) in the assay with KM-20L2; 1.93 µM (inactive) with HOP-18; 4.69 µM (inactive) in the assay with SNB-78; 8.97 µM (inactive) in the assay with XF498; 1.23 µM (inactive) in the assay on DMS-273; 1.57 µM (inactive) with M19-MEL. Also, the GI50 with DLD-1 was 1.83 µM (inactive); in the assay on RXF 631 it was 2.8 µM (inactive); in the assay with DMS-114, 0.52 µM (active).
With `C#CCNC(=O)NCCCCC(NC(=O)OCc1ccccc1)C(=O)OCc1ccccc1` (stereo not drawn), the GI50 in the assay on KM-20L2 is > 100 µM (inactive); in the assay with HOP-18 it was > 100 µM (inactive); with SNB-78, > 80.9 µM (inactive); in the assay with XF498 it was 18.5 µM (inactive); in the assay with DMS-273, > 71.3 µM (inactive); in the assay with M19-MEL, 38.7 µM (inactive). The GI50 in the assay with DLD-1 is 49 µM (inactive); in the assay with RXF 631, > 58.5 µM (inactive); in the assay with DMS-114, 27.7 µM (inactive).
For `O=C(CC1(O)C(=O)Nc2ccc([N+](=O)[O-])cc21)c1ccc(Br)cc1` (stereo not drawn), the GI50 is > 100 µM (inactive) with KM-20L2; > 100 µM (inactive) in the assay with HOP-18; 23.2 µM (inactive) with SNB-78; 32.3 µM (inactive) with XF498; 19.5 µM (inactive) with M19-MEL; 45.3 µM (inactive) with DLD-1. Besides, the GI50 in the assay with DMS-114 is 32.1 µM (inactive).
For `COc1cccc(NC(=O)C(=O)C2C=CCS2(=O)=O)c1` (stereo not drawn), the GI50 with KM-20L2, with HOP-18, in the assay on XF498, in the assay on M19-MEL, with DLD-1 and in the assay with DMS-114 was > 100 µM (inactive) throughout.
As for `NC1=NC(=O)C(CC(=O)Nc2ccc(Cl)cc2Cl)S1` (stereo not drawn), the GI50 with KM-20L2, in the assay with SNB-78, in the assay on XF498, in the assay on DMS-273, in the assay with M19-MEL and in the assay with DLD-1 was > 100 µM (inactive) each time.
As for `CC(=O)O[C@H]1C=CC23OC(=O)[C@]1(C)[C@H]2[C@H](C(=O)O)C12CC(=O)[C@@](CO)(CC[C@H]13)C2`, the GI50 with KM-20L2, in the assay with HOP-18, with SNB-78, in the assay with XF498, in the assay on DMS-273 and in the assay with M19-MEL was > 100 µM (inactive) each time. Moreover, the GI50 with DLD-1 and in the assay with RXF 631 was > 100 µM (inactive) each time.
Consider `CCOC(=O)C1C=C2O[C@@H]3OC4(CCCCC4)O[C@@H]3C2C2C(=O)CCC(=O)[C@@]12C(=O)OC` (stereo partly drawn), for which the GI50 in the assay on KM-20L2, with HOP-18, with SNB-78, in the assay with XF498, in the assay with DMS-273 and in the assay on M19-MEL was > 100 µM (inactive) each time. Moreover, the GI50 in the assay on DLD-1, with RXF 631 and in the assay with DMS-114 was > 100 µM (inactive) each time.
Take `COc1cc2c(c(OC)c1OC)-c1ccc(SC)c(=O)cc1[C@@H](NCc1ccccc1[N+](=O)[O-])CC2`: the GI50 with KM-20L2 was 0.00314 µM (active); in the assay with SNB-78, 0.00682 µM (active); in the assay on XF498, 0.0176 µM (active); with DMS-273, 0.004 µM (active); in the assay with M19-MEL, 0.004 µM (active); in the assay with DLD-1 it was 0.00762 µM (active). Further, the GI50 in the assay with RXF 631 is 0.01 µM (active); in the assay on DMS-114, 0.00796 µM (active).

For the origin of these results see ChEMBL document CHEMBL1201862, “PubChem BioAssay data set” (2004).
